{
  "source": "patent US11207424B2",
  "about": "“Methods and materials for increasing viral vector infectivity” (Mayo Foundation for Medical Education and Research, priority 2014, dated 2021)",
  "key": {"HeLa cells [1]": {"system": "HeLa cells", "format": "cell-based", "details": "for increase in relative luciferase activity: 48 hours p.i."}, "HeLa cells [2]": {"system": "HeLa cells", "test": "GFP-expressing single-stranded AAV9 or scAAV9 vector transduction of HeLa cells, flow cytometry", "format": "cell-based", "details": "AAV9 CMV-GFP or scAAV9 CMV-GFP, 20 nM at 8 hours p.i., 48 hours p.i.", "protocol": "FIG. 20 contains flow cytometry data plotting the infectivity of GFP-expressing single-stranded AAV9 or self-complementary (sc) AAV9 vectors. HeLa cells were infected by AAV9 CMV-GFP or scAAV9 CMV-GFP vectors, followed by treatment with 20 nM meayamycin B at 8 hours p.i. Flow cytometry analysis was performed to observe GFP-positive cell populations at 48 hours p.i.\nTo understand the mechanism of U2 snRNP-mediated block of AAV vector transduction, the optimal timing of meayamycin B treatment in relationship to AAV infection was further assessed. Pretreatment with the drug was not needed in order for it to enhance AAV9 infection (FIG. 18). […] To further map the optimal timing of U2 snRNP inhibition for AAV vector transduction, AAV2 and AAV9 vector-infected HeLa cells were treated with 5 nM meayamycin B at various time points and duration, and luciferase activity was assessed at 3 days p.i. […] In contrast, the effects of meayamycin B on AAV vector transduction were impaired when drug was added either 24 or 48 hours p.i. (FIG. 19). Thus, optimal enhancement of AAV vector transduction involved initiation of U2 snRNP inhibition prior to 24 hours post AAV vector infection."}, "[3]": {"system": "primary pancreatic islets", "test": "AAV8 CMV-GFP transduction of primary mouse pancreatic islets, live imaging", "format": "cell-based, C57B1/6 mice", "details": "2 nM at 3 hours p.i., 48 and 72 hours p.i.", "protocol": "FIG. 21 contains photographs of murine islet cells exposed to AAV8-GFP vectors along with meayamycin (2 nM). Images of GFP expressing islets were taken at two and three days post infection.\n(§1) The ability of meayamycin B to boost AAV transduction in various cell types, relevant to gene therapy applications, was also tested. First, primary pancreatic islets were isolated from 8 week-old C57B1/6 mice, which were then transduced with AAV8 CMV-GFP and treated with 2 nM meayamycin B 3 hours p.i. Cells were monitored by BioStation Live Imaging for three days. […] (FIG. 21). The effects of meayamycin B on primary human pancreatic islets were then tested. Cells were infected with AAV2 or AAV9 CMV-Luc vectors and treated with 0, 2, 5, or 20 nM meayamycin B at 7 hours p.i. When luciferase expression was monitored at 48 hours p.i., a dose-dependent increase in luciferase expression in AAV2 and AAV9 infected cells (up to 44- and 24-fold increases in AAV9 and AAV2 transduction) was observed (FIG. 22). The effects on neonatal rat cardiomyocytes were tested next. Primary cardiomyocytes were infected with AAV2 CMV-Luc, followed by 0, 2, or 10 nM meayamycin B treatments at 3 hours post infection for 3 days. […] (FIG. 23)."}, "[4]": {"system": "primary human pancreatic islets", "test": "AAV2 or AAV9 CMV-Luc transduction of primary human pancreatic islets, luciferase", "format": "cell-based", "details": "human islets, 0, 2, 5 or 20 nM at 7 hours p.i., 48 hours p.i.", "protocol": "FIG. 22 contains graphs plotting relative light units in human islet cells 48 hours post infection with an AAV2 or AAV9 vector and following treatment with the indicate amount of meayamycin at 7 hours post infection. Luciferase expression was analyzed 48 hours p.i.\nas §1"}, "[5]": {"system": "neonatal rat cardiomyocytes", "test": "AAV2 CMV-Luc or scAAV9 CMV-GFP transduction of neonatal rat cardiomyocytes", "format": "cell-based", "protocol": "FIG. 23 presents a graph plotting the relative luciferase activity and images of GFP-expressing cells in neonatal rat cardiomyocytes. Primary cardiomyocytes were infected with AAV2 CMV-Luc or scAAV9 CMV-GFP vectors and treated with meayamycin B, 3 hours p.i. Luciferase activity was measured 3 days p.i., while GFP expression was monitored at 5 days p.i.\nas §1"}, "[6]": {"system": "primary porcine hepatocytes", "test": "AAV2 or AAV9 CMV-Luc transduction of primary porcine hepatocytes, luciferase", "format": "cell-based", "details": "porcine hepatocytes, 0, 2 or 20 nM after 8 hours infection, 48 hours p.i.", "protocol": "FIG. 24 contains graphs plotting the relative luciferase activity in porcine hepatocytes exposed to AAV2 or AAV9 CMV-Luc vectors. Cells were infected with AAV vectors for 8 hours, virus was then removed, and cells were treated with 0, 2, or 20 nM meayamycin B. Cells were harvested 48 hours p.i. for the luciferase assay.\nas §1"}, "[7]": {"system": "cancer cell lines and clinically relevant cell types, including pancreatic islets and hepatocytes", "test": "Summary statement: AAV vector transduction of cancer cell lines and clinically relevant cell types", "format": "cell-based", "details": "summary over cell types", "from_the_text": "Thus, genetic and/or pharmacological inhibition of U2 snRNP can be used to increase AAV vector transduction, which allows for efficient AAV vector gene therapy with reduced vector doses."}, "[8]": {"details": "HeLa, 5 nM, drug 3 hours p.i., washed 1, 2 or 3 days after, luciferase at 3 days p.i."}},
  "note": "Like-named read-outs stand apart in the source and are kept apart here.",
  "data": [
    {"molecule": "CC(/C=C/[C@H]1OC(C)(C)C[C@@]2(CO2)[C@@H]1O)=C\\C[C@@H]1O[C@H](C)[C@H](NC(=O)/C=C\\[C@H](C)OC(=O)N2CCOCC2)C[C@@H]1C", "note": "[meayamycin B]", "values": [
      {"measurement": "increase in relative luciferase activity", "setting": "HeLa cells [1]; HeLa cells pre-treated at increasing dose 3 hours before AAV9 vector infection", "value": "up to 49 fold"},
      {"measurement": "increase in AAV2 vector transduction (luciferase)", "setting": "HeLa cells [1]; [8]", "value": "up to 380 fold"},
      {"measurement": "increase in AAV9 vector transduction (luciferase)", "setting": "HeLa cells [1]; [8]", "value": "≤ 359", "unit": "fold"},
      {"measurement": "increase in relative luciferase activity", "setting": "HeLa cells [1]; HeLa, 20 nM, treated 9 hours post AAV9 vector infection", "value": 464, "unit": "fold"},
      {"measurement": "effects on AAV vector transduction, late drug addition", "setting": "HeLa cells [1]; HeLa, AAV2 and AAV9, drug added either 24 or 48 hours p.i.", "value": "impaired"},
      {"measurement": "effect of washout on AAV vector transduction enhancement", "setting": "HeLa cells [1]; HeLa, AAV2 and AAV9, washout for 48 hours after 3-24 hours of treatment", "value": "did not strongly compromise its effects on AAV vector transduction"},
      {"measurement": "effect on relative luciferase activity", "setting": "HeLa cells [1]; HeLa, AAV9, 20 nM, treatment at 33 hours p.i.", "value": "relatively weak effects"},
      {"measurement": "transduction by GFP-expressing vectors (number and fluorescent intensity of GFP-positive cells)", "setting": "HeLa cells [2]", "value": "enhanced the transduction by both single-stranded and self-complementary AAV vectors"},
      {"measurement": "GFP expressing cells in islets vs control islets", "setting": "[3]", "value": "increased numbers of GFP expressing cells"},
      {"measurement": "increase in AAV2 transduction (luciferase expression)", "setting": "[4]", "value": "≤ 24", "unit": "fold"},
      {"measurement": "increase in AAV9 transduction (luciferase expression)", "setting": "[4]", "value": "up to 44 fold"},
      {"measurement": "vector transduction (luciferase)", "setting": "[5]; AAV2 CMV-Luc, 2 nM at 3 hours post infection for 3 days", "value": "did not strongly improve vector transduction"},
      {"measurement": "increase in luciferase expression", "setting": "[5]; AAV2 CMV-Luc, 10 nM at 3 hours post infection for 3 days", "value": 72, "unit": "fold"},
      {"measurement": "GFP expression", "setting": "[5]; scAAV9 CMV-GFP, 10 nM, 5 days p.i.", "value": "notable increase in GFP expression"},
      {"measurement": "increase in AAV2 vector transduction (luciferase)", "setting": "[6]", "value": "≤ 18", "unit": "fold"},
      {"measurement": "increase in AAV9 vector transduction (luciferase)", "setting": "[6]", "value": "up to 57 fold"},
      {"measurement": "increase in vector transduction", "setting": "[7]", "value": "up to 1000 fold"}
    ]}
  ]
}
